# Values of other authors in US5424456A, “N-arylalkylderivatives of 2-aminomethyl-2,3-dihydro-1,4-benzodioxine and the process of preparation thereof” (Vyzkumny Ustav Pro Farmacii A Biochemii s.p., priority 1991, dated 1995).
# How the values were obtained:
# [1] = test system: α-adrenergic receptors; details: cited from earlier work
# [2] = compared to Verapamil; cited from earlier work
Structure (SMILES),α-adrenergic receptor blocking [1],negative inotropic activity [2]
c1ccc2c(c1)OCC(CN1CCCCC1)O2 (centres unmarked) [Piperoxan],block the α-adrenergic receptors in a competitive manner,
COc1ccc(CCN(C)CCCC(C#N)(c2ccccc2C)C(C)C)cc1OC (centres unmarked) [Mepamil],,lower negative inotropic activity
